According to patent US20050239656A1, “Pyridine compounds or salts thereof and herbicides containing the same” (priority 2002, published 2005):

Experiments:
[1] = test system: barnyardgrass; experiment: Test Example 1: foliage treatment, upland pot test; format: in vivo, Echinochloa crus-galli L.; conditions: active ingredient 500 g/ha, observed 18th to 23rd day, 0 = non-treated, 100 = complete kill
Procedure, shortened: (§1)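 Sow in upland field soil; grow to leaf stage (barnyardgrass 1.3–2.8, soybean 0.1–0.4, wheat 1.3–2.4, rice 1.2–2.6); spray foliage with compound in water, 500 L/ha, spreader 0.1% (v/v); assess visually at 18–23 d, 0 (as untreated) to 100 (full kill).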

[2] = test system: crabgrass; experiment: Test Example 1: foliage treatment, upland pot test; format: in vivo, Digitaria sanguinalis L.; conditions: active ingredient 500 g/ha, observed 18th to 23rd day, 0 = non-treated, 100 = complete kill
[3] = test system: green foxtail; experiment: Test Example 1: foliage treatment, upland pot test; format: in vivo, Setaria viridis L.; conditions: active ingredient 500 g/ha, observed 18th to 23rd day, 0 = non-treated, 100 = complete kill
[4] = test system: redroot pigweed; experiment: Test Example 1: foliage treatment, upland pot test; format: in vivo, Amaranthus retroflexus L.; conditions: active ingredient 500 g/ha, observed 18th to 23rd day, 0 = non-treated, 100 = complete kill
[5] = test system: prickly sida; experiment: Test Example 1: foliage treatment, upland pot test; format: in vivo, Sida spinosa L.; conditions: active ingredient 500 g/ha, observed 18th to 23rd day, 0 = non-treated, 100 = complete kill
[6] = test system: velvetleaf; experiment: Test Example 1: foliage treatment, upland pot test; format: in vivo, Abutilon theophrasti MEDIC.; conditions: active ingredient 500 g/ha, observed 18th to 23rd day, 0 = non-treated, 100 = complete kill
[7] = test system: tall morningglory; experiment: Test Example 1: foliage treatment, upland pot test; format: in vivo, Ipomoea purpurea L.; conditions: active ingredient 500 g/ha, observed 18th to 23rd day, 0 = non-treated, 100 = complete kill
Excerpt: Upland field soil was put into a 1/170,000 ha pot, and seed of various plants were sown. Then, when the plants reached predetermined leaf stages ((1) barnyardgrass: 1.3 to 2.8 leaf stages, (2) crabgrass: 1.0 to 2.8 leaf stages, (3) green foxtail: 1.3 to 2.6 leaf stages, (4) redroot pigweed: 0.1 to 1.2 leaf stages, (5) prickly sida: 0.1 to 1.2 leaf stages, (6) velvetleaf: 0.1 to 1.2 leaf stages, (7) tall morningglory: 0.1 to 1.5 leaf stages, (8) rice: 1.2 to 2.6 leaf stages, (9) wheat: 1.3 to 2.4 leaf stages, (10) corn, 2.1 to 3.2 leaf stages, (11) soybean: 0.1 to 0.4 leaf stage), a wettable powder or emulsifiable concentrate having the compound of the present invention formulated in accordance with a usual formulation method, was weighed so that the active ingredient would be a predetermined amount, and diluted with water in an amount of 500 L/ha. To the diluted solution, 0.1% (v/v) of agricultural spreader was added. The herbicide thus adjusted was applied by a small size sprayer for foliage treatment. On the 18th to 23rd days after the application of the herbicide, the growth of the respective plants was visually observed, and the herbicidal effects were evaluated by the growth controlling degrees (%) ranging from 0 (equivalent to the non-treated plot) to 100 (complete kill), whereby the results shown in Table 3, were obtained.

[8] = test system: rice; experiment: Test Example 1: foliage treatment, upland pot test; format: in vivo, Oryza sativa L.; conditions: crop, active ingredient 500 g/ha, observed 18th to 23rd day, 0 = non-treated, 100 = complete kill
Procedure, shortened: as §1

[9] = test system: corn; experiment: Test Example 1: foliage treatment, upland pot test; format: in vivo, Zea mays L.; conditions: crop, active ingredient 500 g/ha, observed 18th to 23rd day, 0 = non-treated, 100 = complete kill
Procedure, shortened: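 In this upland pot foliage test, corn plants at 2.1 to 3.2 leaf stages were sprayed by a small size sprayer. The spray was a conventionally formulated wettable powder or emulsifiable concentrate weighed to a set active ingredient amount, diluted in water at 500 L/ha, plus 0.1% (v/v) agricultural spreader. Visual assessment on days 18 to 23 gave growth controlling degree (%), where 0 equals untreated and 100 means complete kill.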

[10] = test system: soybean; experiment: Test Example 1: foliage treatment, upland pot test; format: in vivo, Glycine max Merr.; conditions: crop, active ingredient 500 g/ha, observed 18th to 23rd day, 0 = non-treated, 100 = complete kill
Procedure, shortened: as §1

[11] = test system: barnyardgrass; experiment: Test Example 2: soil surface treatment, upland pot test; format: in vivo, Echinochloa crus-galli L.; conditions: observed 20th to 28th day
Procedure, shortened: (§2)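 Readout was visual percent growth control (0 matching untreated, 100 complete kill) at days 20–28. Compound, as emulsifiable concentrate or wettable powder at a preset active-ingredient rate in 1,500 L/ha water, was sprayed onto sown upland soil one day after sowing.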

[12] = test system: crabgrass; experiment: as above; format: in vivo, Digitaria sanguinalis L.; conditions: observed 20th to 28th day
Procedure, shortened: as §2

[13] = test system: green foxtail; experiment: as above; format: in vivo, Setaria viridis L.; conditions: observed 20th to 28th day
Procedure, shortened: as §2

[14] = test system: redroot pigweed; experiment: as above; format: in vivo, Amaranthus retroflexus L.; conditions: observed 20th to 28th day
Procedure, shortened: as §2

[15] = test system: prickly sida; experiment: as above; format: in vivo, Sida spinosa L.; conditions: observed 20th to 28th day
Procedure, shortened: as §2

[16] = test system: velvetleaf; experiment: as above; format: in vivo, Abutilon theophrasti MEDIC.; conditions: observed 20th to 28th day
Procedure, shortened: as §2

[17] = test system: rice; experiment: as above; format: in vivo, Oryza sativa L.; conditions: observed 20th to 28th day
Procedure, shortened: as §2

[18] = test system: wheat; experiment: as above; format: in vivo, Triticum spp.; conditions: observed 20th to 28th day
Procedure, shortened: as §2

[19] = test system: corn; experiment: as above; format: in vivo, Zea mays L.; conditions: observed 20th to 28th day
Procedure, shortened: as §2

[20] = test system: soybean; experiment: as above; format: in vivo, Glycine max Merr.; conditions: observed 20th to 28th day
Procedure, shortened: as §2

[21] = test system: barnyardgrass; experiment: Test Example 3: paddy pot test, application under submerged conditions; format: in vivo, Echinochloa crus-galli L.; conditions: submerged application at 0.5 leaf stage, visually observed 14 days after application, 0 = non-treated, 100 = complete kill
Procedure, shortened: (§3)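 Visual rating of growth control (0% equals untreated, 100% complete kill) made 14 days after treatment. Compound, formulated as wettable powder or emulsifiable concentrate and diluted in water, was pipetted under submerged conditions at predetermined active-ingredient doses once weeds reached 0.5-leaf (barnyardgrass, bulrush) or primary-leaf (wapato, from tubers) stage. Pots of greenhouse paddy soil held 3–4 cm flooding.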

[22] = test system: japanese bulrush; experiment: as above; format: in vivo, Scirpus juncoides; conditions: submerged application at 0.5 leaf stage, visually observed 14 days after application, 0 = non-treated, 100 = complete kill
Procedure, shortened: as §3

[23] = test system: japanese ribbon wapato; experiment: as above; format: in vivo, Sagittaria pygniaea; conditions: submerged application at primary leaf stage, visually observed 14 days after application, 0 = non-treated, 100 = complete kill
Procedure, shortened: as §3

[24] = test system: rice (var. Nihonbare); experiment: Test Example 3: paddy pot test, transplanted rice; format: in vivo, Oryza sativa L.; conditions: applied 4th day after transplantation, visually observed 21st day after application, 0 = non-treated, 100 = complete kill
Procedure, shortened: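 Visual crop-injury rating (0 = as untreated, 100 = complete kill, %) taken 21 days post-application. Treatment: formulated compound, water-diluted, pipetted into 3–4 cm flood water at a preset active-ingredient dose, 4 days after transplanting 2-leaf Nihonbare rice 3 cm deep in puddled paddy soil.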

[25] = test system: wheat; experiment: Test Example 1: foliage treatment, upland pot test; format: in vivo, Triticum spp.; conditions: crop, active ingredient 500 g/ha, observed 18th to 23rd day, 0 = non-treated, 100 = complete kill
Procedure, shortened: as §1

Row | SMILES | Growth controlling degree (%) Barnyardgrass [1] [%] | Growth controlling degree (%) Crabgrass [2] [%] | Growth controlling degree (%) Green foxtail [3] [%] | Growth controlling degree (%) Redroot pigweed [4] [%] | Growth controlling degree (%) Prickly sida [5] [%] | Growth controlling degree (%) Velvetleaf [6] [%] | Growth controlling degree (%) Rice [8] [%] | Growth controlling degree (%) Corn [9] [%] | Growth controlling degree (%) Soybean [10] [%] | Growth controlling degree (%) wheat [25] [%] | Growth controlling degree (%) Barnyardgrass ([11]; active ingredient 250 g/ha) [%] | Growth controlling degree (%) Crabgrass ([12]; active ingredient 250 g/ha) [%] | Growth controlling degree (%) Green foxtail ([13]; active ingredient 250 g/ha) [%] | Growth controlling degree (%) Redroot pigweed ([14]; active ingredient 250 g/ha) [%] | Growth controlling degree (%) Prickly sida ([15]; active ingredient 250 g/ha) [%] | Growth controlling degree (%) Velvetleaf ([16]; active ingredient 250 g/ha) [%] | Growth controlling degree (%) Rice ([17]; active ingredient 250 g/ha) [%] | Growth controlling degree (%) wheat ([18]; active ingredient 250 g/ha) [%] | Growth controlling degree (%) Corn ([19]; active ingredient 250 g/ha) [%] | Growth controlling degree (%) Soyabean ([20]; active ingredient 250 g/ha) [%] | other results
1 | CC(C)C(c1cnccc1C(F)(F)F)N(C)C(=O)Cc1ccc(Cl)cc1Cl (stereo not drawn) [I-14] | 50 | 70 | 60 | 80 | 80 | 70 | 20 | 40 | 20 | – | – | – | – | – | – | – | – | – | – | – | Growth controlling degree (%) Tall morningglory [7]: 95%; Growth controlling degree (%) Barnyardgrass ([11]; active ingredient 1000 g/ha, 0 = non-treated, 100 = complete kill): 100%; Growth controlling degree (%) Crabgrass ([12]; active ingredient 1000 g/ha): 100%; Growth controlling degree (%) Green foxtail ([13]; active ingredient 1000 g/ha): 100%; Growth controlling degree (%) Redroot pigweed ([14]; active ingredient 1000 g/ha): 85%; Growth controlling degree (%) Prickly sida ([15]; active ingredient 1000 g/ha): 60%; Growth controlling degree (%) Velvetleaf ([16]; active ingredient 1000 g/ha): 60%; Growth controlling degree (%) Rice ([17]; active ingredient 1000 g/ha): 10%; Growth controlling degree (%) wheat ([18]; active ingredient 1000 g/ha): 30%; Growth controlling degree (%) Corn ([19]; active ingredient 1000 g/ha): 20%; Growth controlling degree (%) Soyabean ([20]; active ingredient 1000 g/ha): 0%; Growth controlling degree (%) Barnyardgrass ([21]; active ingredient 500 g/ha): 100%; Growth controlling degree (%) Japanese bulrush ([22]; active ingredient 500 g/ha): 98%; Growth controlling degree (%) Japanese ribbon wapato ([23]; active ingredient 500 g/ha): 30%; Growth controlling degree (%) Rice ([24]; active ingredient 500 g/ha): 10%
2 | COCC(=O)N(C)C(c1cnccc1C(F)(F)F)C(C)C (stereo not drawn) [I-195] | 70 | 80 | 60 | 80 | 70 | 60 | 70 | 10 | 60 | 30 | 98 | 98 | 60 | 30 | 30 | 10 | 40 | 10 | 20 | 10 | Growth controlling degree (%) Barnyardgrass ([21]; active ingredient 250 g/ha): 70%; Growth controlling degree (%) Japanese bulrush ([22]; active ingredient 250 g/ha): 100%; Growth controlling degree (%) Japanese ribbon wapato ([23]; active ingredient 250 g/ha): 80%; Growth controlling degree (%) Rice ([24]; active ingredient 250 g/ha): 20%
3 | CC(C)C(c1cnccc1C(F)(F)F)N(C)C(=O)C(Br)C(C)(C)C (stereo not drawn) [I-196] | 60 | 60 | 40 | 50 | 70 | 10 | 40 | 10 | 40 | 40 | 70 | 90 | 95 | 60 | 60 | 30 | 30 | 10 | 30 | 10 | Growth controlling degree (%) Barnyardgrass ([21]; active ingredient 250 g/ha): 98%; Growth controlling degree (%) Japanese bulrush ([22]; active ingredient 250 g/ha): 100%; Growth controlling degree (%) Japanese ribbon wapato ([23]; active ingredient 250 g/ha): 50%; Growth controlling degree (%) Rice ([24]; active ingredient 250 g/ha): 10%
